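Grown in 96-well plates, cells were treated for 48 hours with each compound at five concentrations. Insufficient inhibition: endpoint recorded as highest concentration tested. GI50: concentration for 50% inhibition of growth.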 Calls of active or inactive are those of the source. No stated cut-off is given here; in the data, active = GI50 up to about 1.1 µM and inactive = higher.
Legend:
Experiment in all cases: DTP human tumour cell line panel, 48 h
XF498 = tested on: XF498
DMS-114 = tested on: DMS-114
LXFL 529 = tested on: LXFL 529
RXF 631 = tested on: RXF 631
DMS-273 = tested on: DMS-273
SNB-78 = tested on: SNB-78
M19-MEL = tested on: M19-MEL
HOP-18 = tested on: HOP-18

Measured: GI50

CC(C)=CC1(C)/C(=N\O)C(C)(CC(C)C)C(=O)N1O (configuration not stated)
inactive: XF498 11.3 µM | DMS-114 > 100 µM | LXFL 529 > 100 µM | RXF 631 > 100 µM | DMS-273 > 100 µM | SNB-78 > 100 µM | M19-MEL > 100 µM

C=CCCCN1CCCCC1=S
inactive: XF498 > 100 µM | DMS-114 > 100 µM | RXF 631 > 100 µM | DMS-273 > 100 µM | HOP-18 > 100 µM | M19-MEL > 100 µM

COc1cc2c(cc1OCc1ccccc1)CNCC2
inactive: XF498 > 100 µM | DMS-114 > 100 µM | LXFL 529 > 100 µM | RXF 631 > 100 µM | DMS-273 > 100 µM | SNB-78 > 100 µM | HOP-18 > 100 µM | M19-MEL > 100 µM

Cc1cc(Cl)ccc1NC(=O)C1C(=O)N(c2ccc(Cl)cc2C)C(=O)/C1=N\NC(N)=S (configuration not stated)
inactive: DMS-114 31.6 µM | LXFL 529 28.7 µM | RXF 631 45.6 µM | DMS-273 46.3 µM | SNB-78 44 µM | HOP-18 16.8 µM | M19-MEL 37.4 µM

CC(=O)NC1=C(N)C(=O)c2ccccc2C1=O
inactive: XF498 > 100 µM | DMS-114 14.8 µM | LXFL 529 45 µM | RXF 631 > 100 µM | DMS-273 > 100 µM | SNB-78 > 100 µM | HOP-18 > 100 µM | M19-MEL 19.4 µM

CC1=C(C(=O)Nc2ccccc2C)C(c2ccco2)C(C(=O)Nc2ccccc2C)=C(C)N1C
inactive: XF498 > 100 µM | DMS-114 > 100 µM | LXFL 529 > 100 µM | RXF 631 81.5 µM | SNB-78 > 100 µM | HOP-18 > 100 µM | M19-MEL > 100 µM

CCc1cccc(C)c1NC(C)=O
inactive: XF498 > 100 µM | DMS-114 > 100 µM | LXFL 529 > 100 µM | RXF 631 > 100 µM | DMS-273 > 100 µM | SNB-78 > 100 µM | M19-MEL > 100 µM

CCCCCCCCCCCCCCCCOCC(CP(=O)([O-])OCC[n+]1ccccc1)OC (configuration not stated)
inactive: XF498 12.1 µM | DMS-114 11.4 µM | LXFL 529 11.4 µM | RXF 631 14.6 µM | DMS-273 2.04 µM | SNB-78 15.9 µM | M19-MEL 12.4 µM

— ChEMBL document CHEMBL1201862, “PubChem BioAssay data set” (2004)
